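All cell lines were grown in 96-well plates and treated with compound for 48 hours. At the TGI there is no net growth.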
How the values were obtained:
Test in all cases: NCI anticancer screen, dose series, 48 h
OVCAR-8 ovarian = test system: OVCAR-8 ovarian
UACC-257 melanoma = test system: UACC-257 melanoma
NCI-H226 lung = test system: NCI-H226 lung
EKVX NSCLC = test system: EKVX NSCLC
MALME-3M melanoma = test system: MALME-3M melanoma
UO-31 renal = test system: UO-31 renal
K-562 leukemia = test system: K-562 leukemia
IGROV1 ovarian = test system: IGROV1 ovarian
MDA-MB-435 = test system: MDA-MB-435
MDA-N = test system: MDA-N
DU-145 prostate = test system: DU-145 prostate

Structure (SMILES) | TGI (OVCAR-8 ovarian) [µM] | TGI (UACC-257 melanoma) [µM] | TGI (NCI-H226 lung) [µM] | TGI (EKVX NSCLC) [µM] | TGI (MALME-3M melanoma) [µM] | TGI (UO-31 renal) [µM] | TGI (K-562 leukemia) [µM] | TGI (IGROV1 ovarian) [µM] | TGI (MDA-MB-435) [µM] | TGI (MDA-N) [µM] | TGI (DU-145 prostate) [µM]
c1ccc2c(c1)OCCOCCOc1ccccc1OCCO2 | > 100 | > 100 | > 100 | > 100 | 88.2 | > 100 | > 100 | > 100 | – | – | –
CCCn1cnc2c(SCc3ccc(Cl)cc3)nc(N)nc21 | > 100 | 41.8 | – | 43.5 | 65.8 | > 100 | 48.2 | > 100 | 57.8 | 55 | > 100
CCOC(=O)CCC1(CCC(=O)OCC)CCCCCCCCC(CCC(=O)OCC)(CCC(=O)OCC)C(=O)C1=O | > 100 | > 100 | > 100 | > 100 | > 100 | – | > 100 | > 100 | > 100 | > 100 | > 100
N/C(=N\S(=O)(=O)c1ccc(-c2ncccc2C(F)(F)F)s1)Nc1ccc(Cl)cc1 | 29.7 | 14 | 41.4 | 19 | 30.1 | 38.4 | 63.8 | 27.8 | – | – | 36.4
O=C(NCCN1CCOCC1)c1ccc(I)cc1 | > 100 | – | > 100 | > 100 | – | > 100 | > 100 | > 100 | – | – | –
C=C1CC[C@H]2C(=O)OC(c3ccoc3)C[C@]2(C)C/C=C\C=C/1C(=O)OC (stereo not given in full) | > 25 | > 25 | > 25 | > 25 | > 25 | > 25 | > 25 | > 25 | – | > 25 | –
Nc1c(S(=O)(=O)c2ccccc2)c2nc3ccccc3nc2n2c1nc1ccccc12 | > 63.4 | > 100 | > 75.1 | > 100 | > 80.9 | > 100 | > 100 | 98.9 | – | – | –
COc1cccc(CC(=O)N2CCN(CCCc3ccccc3)CC2)c1 | > 100 | > 100 | > 100 | > 100 | – | > 100 | > 100 | > 100 | > 100 | > 100 | > 100
CCOC(=O)C(NC(=O)c1ccccc1)(N1CCN(c2cc3c(cc2F)c(=O)c(C(=O)O)cn3C2CC2)CC1)C(F)(F)F (stereo not given) | > 100 | – | 45.2 | 67.1 | 39.3 | 63.3 | 46.6 | 92.5 | 45.2 | 46.8 | > 100
CC(NC(=O)c1c(O)[nH]c(=S)[nH]c1=O)c1ccc([N+](=O)[O-])cc1 (stereo not given) | – | > 100 | > 100 | > 100 | – | > 100 | > 100 | > 100 | > 100 | > 100 | > 100
CN1CCc2c(sc3[nH]c(=S)[nH]c(=S)c23)C1 | > 100 | > 100 | > 100 | > 100 | > 100 | – | > 100 | > 100 | > 100 | > 100 | > 100
CCCCCCc1cc2cc(C(=O)Nc3ccc(F)cc3)c(=N)oc2cc1O | 3.75 | 29.2 | – | 21.2 | > 100 | 18.4 | 12.3 | 4.47 | 10.1 | 28.1 | 6.78
O=C1C=C(Nc2ccc(S(=O)(=O)Nc3nccs3)cc2)c2ccccc2C1=O | 47.6 | > 100 | 70.1 | > 100 | 48.7 | > 100 | > 100 | > 100 | 33.5 | 38.5 | –
COc1ccc(/C(Cl)=C(\C#N)c2ccc(OC)c(OC)c2)cc1OC | – | > 100 | > 100 | 94 | – | > 100 | > 100 | > 100 | > 100 | > 100 | > 100
COc1ccc(C2c3cc4c(cc3OC(N3CCOCC3)C2C)OCO4)cc1 (stereo not given) | > 100 | > 100 | – | > 100 | 40.7 | > 100 | > 31.6 | > 100 | > 60.4 | > 82 | > 100
COC(=O)N[C@H](C(=O)NC(OCc1ccccc1)C1COC(C)(C)O1)C(C)O[Si](C)(C)C(C)(C)C (stereo not given in full) | > 100 | > 100 | – | > 100 | > 100 | > 100 | > 100 | > 100 | – | > 100 | > 100
COc1ccc(CNc2nc(NC3CCCCC3)nc(NC3CCCCC3)n2)cc1 | > 100 | > 100 | 15.5 | > 100 | 64.2 | 67.2 | > 100 | 61.6 | > 100 | – | > 100
CC(=O)c1c(N=[N+]=[N-])c2cccc3c2n(c1=O)CCC3 | 16.1 | 37.8 | 50.4 | 54.1 | 27.6 | 55.6 | > 100 | 42.8 | 42.7 | 44.5 | –
CC1(C)O[C@H]2OC(CO)C(N=[N+]=[N-])[C@H]2O1 (stereo not given in full) | > 100 | > 100 | – | > 100 | > 100 | > 100 | – | > 100 | > 100 | > 100 | > 100
COc1cc2nc(-c3cccs3)nc(Cl)c2cc1OC | > 100 | > 100 | > 100 | > 100 | > 100 | > 100 | > 100 | > 100 | > 100 | – | > 100
O=C1/C(=C\c2cccc(Oc3ccccc3)c2)S(=O)(=O)C(c2ccccc2)N1c1cccc(Cl)c1 (stereo not given) | 69.4 | > 100 | – | > 100 | > 100 | > 100 | > 100 | > 100 | > 100 | > 100 | > 100
C/C(=N\NC(=S)N1CCCC1)c1nc2ncccc2[nH]1 | 39.9 | 10.7 | 4.31 | – | 63.9 | 0.492 | 37 | – | > 100 | > 100 | 13.1
